Laboratory results reported in ChEMBL document CHEMBL3217712, “Improved biodistribution, pharmacokinetics and photodynamic efficacy using a new photostable sulfonamide bacteriochlorin” (Medchemcomm, 2012).
The source made the active and inactive calls. The calls are words filed in the database; no cut-off is given here.

Assays:
[1] = Biodistribution in mouse Cloudman S91 tumor bearing DBA2 mouse skin at 10 mg/kg, ip after 12 hrs; type: ADME, organism-based, Zone of skin; set-up: dose 10 mg/kg, route intraperitoneal; conditions: read-out: Drug uptake
[2] = Biodistribution in mouse Cloudman S91 tumor bearing DBA2 mouse tumour at 10 mg/kg, ip after 24 hrs; type: ADME, organism-based, Neoplasm; set-up: dose 10 mg/kg, route intraperitoneal; conditions: read-out: Drug uptake
[3] = Biodistribution in mouse Cloudman S91 tumor bearing DBA2 mouse skin at 10 mg/kg, ip after 2 hrs; type: ADME, organism-based, Zone of skin; set-up: dose 10 mg/kg, route intraperitoneal; conditions: read-out: Drug uptake
[4] = Biodistribution in mouse Cloudman S91 tumor bearing DBA2 mouse blood at 10 mg/kg, ip after 2 hrs; type: ADME, organism-based; set-up: dose 10 mg/kg, route intraperitoneal; conditions: read-out: Drug uptake
[5] = Biodistribution in mouse Cloudman S91 tumor bearing DBA2 mouse intestine at 10 mg/kg, ip after 2 hrs; type: ADME, organism-based; set-up: dose 10 mg/kg, route intraperitoneal; conditions: read-out: Drug uptake
[6] = Biodistribution in mouse Cloudman S91 tumor bearing DBA2 mouse liver at 10 mg/kg, ip after 2 hrs; type: ADME, organism-based; set-up: dose 10 mg/kg, route intraperitoneal; conditions: read-out: Drug uptake
[7] = Biodistribution in mouse Cloudman S91 tumor bearing DBA2 mouse heart at 10 mg/kg, ip after 12 hrs; type: ADME, organism-based; set-up: dose 10 mg/kg, route intraperitoneal; conditions: read-out: Drug uptake
[8] = Biodistribution in mouse Cloudman S91 tumor bearing DBA2 mouse lungs at 10 mg/kg, ip after 12 hrs; type: ADME, organism-based; set-up: dose 10 mg/kg, route intraperitoneal; conditions: lung, read-out: Drug uptake
[9] = Biodistribution in mouse Cloudman S91 tumor bearing DBA2 mouse liver at 10 mg/kg, ip after 12 hrs; type: ADME, organism-based; set-up: dose 10 mg/kg, route intraperitoneal; conditions: read-out: Drug uptake
[10] = Biodistribution in mouse Cloudman S91 tumor bearing DBA2 mouse skin at 10 mg/kg, ip after 6 hrs; type: ADME, organism-based, Zone of skin; set-up: dose 10 mg/kg, route intraperitoneal; conditions: read-out: Drug uptake
[11] = test system: S91; test: Photodynamic efficacy against mouse Cloudman S91 cells allografted in DBA2 mouse assessed as tumor growth delay at 10 mg/kg, ip followed by irradiated with 96 J cm'-2 laser light for 20 mins relative to sulfonated bacteriochlorin; type: functional; conditions: route intraperitoneal
[12] = Biodistribution in mouse Cloudman S91 tumor bearing DBA2 mouse liver at 10 mg/kg, ip after 24 hrs; type: ADME, organism-based; set-up: dose 10 mg/kg, route intraperitoneal; conditions: read-out: Drug uptake
[13] = Biodistribution in mouse Cloudman S91 tumor bearing DBA2 mouse liver at 10 mg/kg, ip after 72 hrs; type: ADME, organism-based; set-up: dose 10 mg/kg, route intraperitoneal; conditions: read-out: Drug uptake
[14] = Biodistribution in mouse Cloudman S91 tumor bearing DBA2 mouse kidneys at 10 mg/kg, ip after 2 hrs; type: ADME, organism-based; set-up: dose 10 mg/kg, route intraperitoneal; conditions: kidney, read-out: Drug uptake
[15] = Biodistribution in mouse Cloudman S91 tumor bearing DBA2 mouse heart at 10 mg/kg, ip after 48 hrs; type: ADME, organism-based; set-up: dose 10 mg/kg, route intraperitoneal; conditions: read-out: Drug uptake
[16] = Biodistribution in mouse Cloudman S91 tumor bearing DBA2 mouse kidneys at 10 mg/kg, ip after 72 hrs; type: ADME, organism-based; set-up: dose 10 mg/kg, route intraperitoneal; conditions: kidney, read-out: Drug uptake
[17] = test system: S91; test: Photodynamic efficacy against mouse Cloudman S91 cells allografted in DBA2 mouse assessed as necrotic and flat tumor at 10 mg/kg, ip followed by irradiated with 96 J cm'-2 laser light for 20 mins measured after 1 to 2 days; type: functional, organism-based; set-up: dose 10 mg/kg
[18] = test system: Nucleic Acid; test: Ratio of drug level in tumor to skin in ip dosed human HT29 tumor bearing mouse; type: ADME, organism-based; conditions: in vivo
[19] = Biodistribution in mouse Cloudman S91 tumor bearing DBA2 mouse skin at 10 mg/kg, ip after 48 hrs; type: ADME, organism-based, Zone of skin; set-up: dose 10 mg/kg, route intraperitoneal; conditions: read-out: Drug uptake
[20] = Biodistribution in mouse Cloudman S91 tumor bearing DBA2 mouse muscle at 10 mg/kg, ip after 24 hrs; type: ADME, organism-based, Muscle tissue; set-up: dose 10 mg/kg, route intraperitoneal; conditions: read-out: Drug uptake
[21] = test system: S91; test: Antitumor activity against mouse Cloudman S91 cells allografted in DBA2 mouse at 10 mg/kg, ip; type: functional, organism-based; set-up: dose 10 mg/kg
[22] = Biodistribution in mouse Cloudman S91 tumor bearing DBA2 mouse blood at 10 mg/kg, ip after 24 hrs; type: ADME, organism-based; set-up: dose 10 mg/kg, route intraperitoneal; conditions: read-out: Drug uptake
[23] = test system: Nucleic Acid; test: Ratio of drug level in tumor to skin in mouse Cloudman S91 tumor bearing DBA2 mouse at 10 mg/kg, ip; type: ADME, organism-based; set-up: dose 10 mg/kg, route intraperitoneal; conditions: in vivo
[24] = test system: Nucleic Acid; test: Ratio of drug level in tumor to muscle in ip dosed human HT29 tumor bearing mouse; type: ADME, organism-based; conditions: in vivo
[25] = Biodistribution in mouse Cloudman S91 tumor bearing DBA2 mouse heart at 10 mg/kg, ip after 24 hrs; type: ADME, organism-based; set-up: dose 10 mg/kg, route intraperitoneal; conditions: read-out: Drug uptake
[26] = Biodistribution in mouse Cloudman S91 tumor bearing DBA2 mouse heart at 10 mg/kg, ip after 72 hrs; type: ADME, organism-based; set-up: dose 10 mg/kg, route intraperitoneal; conditions: read-out: Drug uptake
[27] = Biodistribution in mouse Cloudman S91 tumor bearing DBA2 mouse blood at 10 mg/kg, ip after 72 hrs; type: ADME, organism-based; set-up: dose 10 mg/kg, route intraperitoneal; conditions: read-out: Drug uptake
[28] = Biodistribution in mouse Cloudman S91 tumor bearing DBA2 mouse intestine at 10 mg/kg, ip after 72 hrs; type: ADME, organism-based; set-up: dose 10 mg/kg, route intraperitoneal; conditions: read-out: Drug uptake
[29] = Biodistribution in mouse Cloudman S91 tumor bearing DBA2 mouse tumour at 10 mg/kg, ip after 12 hrs; type: ADME, organism-based, Neoplasm; set-up: dose 10 mg/kg, route intraperitoneal; conditions: read-out: Drug uptake
[30] = Biodistribution in mouse Cloudman S91 tumor bearing DBA2 mouse spleen at 10 mg/kg, ip after 2 hrs; type: ADME, organism-based; set-up: dose 10 mg/kg, route intraperitoneal; conditions: read-out: Drug uptake
[31] = test system: Nucleic Acid; test: Ratio of drug level in tumor to muscle in mouse Cloudman S91 tumor bearing DBA2 mouse at 10 mg/kg, ip; type: ADME, organism-based; set-up: dose 10 mg/kg, route intraperitoneal; conditions: in vivo
[32] = Biodistribution in mouse Cloudman S91 tumor bearing DBA2 mouse heart at 10 mg/kg, ip after 2 hrs; type: ADME, organism-based; set-up: dose 10 mg/kg, route intraperitoneal; conditions: read-out: Drug uptake
[33] = Biodistribution in mouse Cloudman S91 tumor bearing DBA2 mouse lungs at 10 mg/kg, ip after 2 hrs; type: ADME, organism-based; set-up: dose 10 mg/kg, route intraperitoneal; conditions: lung, read-out: Drug uptake
[34] = Biodistribution in mouse Cloudman S91 tumor bearing DBA2 mouse blood at 10 mg/kg, ip after 48 hrs; type: ADME, organism-based; set-up: dose 10 mg/kg, route intraperitoneal; conditions: read-out: Drug uptake
[35] = Biodistribution in mouse Cloudman S91 tumor bearing DBA2 mouse lungs at 10 mg/kg, ip after 24 hrs; type: ADME, organism-based; set-up: dose 10 mg/kg, route intraperitoneal; conditions: lung, read-out: Drug uptake
[36] = Biodistribution in mouse Cloudman S91 tumor bearing DBA2 mouse intestine at 10 mg/kg, ip after 12 hrs; type: ADME, organism-based; set-up: dose 10 mg/kg, route intraperitoneal; conditions: read-out: Drug uptake
[37] = test system: S91; test: Photodynamic efficacy against mouse Cloudman S91 cells allografted in DBA2 mouse assessed as disappearance of tumor at 10 mg/kg, ip followed by irradiated with 96 J cm'-2 laser light for 20 mins; type: functional, organism-based; set-up: dose 10 mg/kg

Compound CCNS(=O)(=O)c1ccc(Cl)c(-c2c3nc(c(-c4c(Cl)ccc(S(=O)(=O)NCC)c4Cl)c4ccc([nH]4)c(-c4c(Cl)ccc(S(=O)(=O)NCC)c4Cl)c4nc(c(-c5c(Cl)ccc(S(=O)(=O)NCC)c5Cl)c5ccc2[nH]5)CC4)CC3)c1Cl has a concentration at 12 h [1] of 180 ng/g, a concentration at 24 h [2] of 960 ng/g and a concentration at 2 h [3] of 50 ng/g. For the same compound, the concentration at 2 h [4] was 90 ng/g, the concentration at 2 h [5] was 200 ng/g and the concentration at 2 h [6] was 980 ng/g. For the same compound, the concentration at 12 h [7] was 200 ng/g, the concentration at 12 h [8] was 300 ng/g and the concentration at 12 h [9] was 4000 ng/g. The concentration at 6 h [10] was 70 ng/g, the “fold change (FC)” value [11] was 1.6 and the concentration at 24 h [12] was 2000 ng/g. For the same compound, the concentration at 72 h [13] was 630 ng/g, the concentration at 2 h [14] was 100 ng/g and the concentration at 48 h [15] was 300 ng/g. The concentration at 72 h [16] was 200 ng/g, the Activity [17] was “Active” and the Ratio [18] was 1. The concentration at 48 h [19] was 80 ng/g, the concentration at 24 h [20] was 130 ng/g and the Activity [21] was “inactive”. For the same compound, the concentration at 24 h [22] was 230 ng/g, the Ratio [23] was 6 and the Ratio [24] was 5. It also gave a concentration at 24 h [25] of 800 ng/g, a concentration at 72 h [26] of 200 ng/g and a concentration at 72 h [27] of 50 ng/g. It also gave a concentration at 72 h [28] of 300 ng/g, a concentration at 12 h [29] of 370 ng/g and a concentration at 2 h [30] of 2300 ng/g. It also gave a Ratio [31] of 7, a concentration at 2 h [32] of 40 ng/g and a concentration at 2 h [33] of 200 ng/g. It also gave a concentration at 48 h [34] of 130 ng/g, a concentration at 24 h [35] of 850 ng/g and a concentration at 12 h [36] of 1200 ng/g. For the same compound, the Activity [37] was “Active”.
